# Experimental data reported in US10829520B2, “Beta-hairpin peptidomimetics” (POLYPHOR AG, priority 2015, dated 2020).
# Where a SMILES comes first, the peptide text is derived from it. Bridges are numbered along the chain shown (N, C = ends). Roman numbers before positions name the chains, in order. [ ]: non-standard residue; d: D form. Pen = CC(C)(S)[C@H](N)C(=O)O; Tle = CC(C)(C)[C@H](N)C(=O)O; dDab = NCC[C@@H](N)C(=O)O; Nle = CCCC[C@H](N)C(=O)O; Orn = NCCC[C@H](N)C(=O)O; Dab = NCC[C@H](N)C(=O)O
# Tests used:
# Type in all cases: cell-based
# [1] = system: human red blood cells (hRBC); test: Hemolysis of human red blood cells; details: red cells of human, 1 h
# Procedure, shortened: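 Percent hemolysis = OD540 of peptide-treated supernatant relative to the 2.5% Triton X-100 (100%) control, PBS containing 0.001% acetic acid defining 0%. Peptides tested at 100 μg/mL against 20% (v/v) washed human RBC, 1 h, 37 °C, 300 rpm.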
# [2] = system: Acinetobacter baumannii DSM 30008; details: DSM 30008
# Procedure, shortened: (§1)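 MIC in μg/mL; CLSI microdilution; cation-adjusted Mueller-Hinton II with Polysorbate 80 (0.002%); 10^6 CFU/mL; 35° C, 18-20 h.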
# [3] = system: Klebsiella pneumoniae 968733; details: 968733
# [4] = system: Klebsiella pneumoniae SSI #3010; details: SSI #3010
# Procedure, shortened: as §1
# Escherichia coli 926415 = details: 926415
# [5] = system: Pseudomonas aeruginosa ATCC 27853; details: ATCC 27853
# Procedure, shortened: as §1
# [6] = system: Escherichia coli ATCC 25922; details: ATCC 25922
# Procedure, shortened: as §1
# [7] = system: Acinetobacter baumannii 872842; details: 872842
Compound,Hemolysis at 100 μg/mL ([1]; 100 μg/mL) [%],Acinetobacter baumannii DSM 30008 MIC [2] [µg/mL],Klebsiella pneumoniae 968733 MIC [3] [µg/mL],Klebsiella pneumoniae SSI #3010 MIC [4] [µg/mL],Escherichia coli 926415 MIC (Escherichia coli 926415) [µg/mL],Pseudomonas aeruginosa ATCC 27853 MIC [5] [µg/mL],Escherichia coli ATCC 25922 MIC [6] [µg/mL],Acinetobacter baumannii 872842 MIC [7] [µg/mL],Hemolysis at 100 μg/mL [1]; 100 [%]
CC(C)C[C@@H]1NC(=O)[C@@H](CC(C)C)NC(=O)[C@H](CCN)NC(=O)[C@@H](NC(=O)[C@H](CCN)NC(=O)[C@@H](NC(=O)[C@H](CCN)NC(=O)[C@H](CCN)NC(=O)[C@H]2NC(=O)[C@H](Cc3ccc(O)cc3)NC(=O)[C@H](CO)NC(=O)[C@H](CC(C)C)NC(=O)[C@@H]3CCCN3C(=O)[C@H]3CCCN3C(=O)[C@H](CO)NC(=O)[C@H](C)NC(=O)[C@H](C(C)C)NC(=O)[C@@H](NC(=O)[C@@H](N)Cc3c[nH]c4ccccc34)C(C)(C)SSC2(C)C)[C@@H](C)O)CCNC(=O)[C@H]([C@@H](C)O)NC(=O)[C@H](CCN)NC(=O)[C@H](CCN)NC1=O [Ex. 122] (H-W[Pen]VAS[dP]PLSY[Pen][Dab][Dab]T[Dab][Dab][Dab][dL]L[Dab][Dab]T; disulfide 2-11; lactam 16-C),2,0.125,1,0.5,0.25,0.5,0.0625,0.03125,
CCCC[C@@H]1NC(=O)[C@@H]2CCCN2C(=O)[C@H]2CCCN2C(=O)[C@H](CO)NC(=O)[C@H](C)NC(=O)[C@H](C(C)(C)C)NC(=O)[C@@H](NC(=O)[C@H](Cc2c[nH]c3ccccc23)NC(=O)[C@H](C)NC(C)=O)CSSC[C@@H](C(=O)N[C@@H](CCN)C(=O)N[C@H](C(=O)N[C@@H](CCN)C(=O)N[C@H]2CCNC(=O)[C@H]([C@@H](C)O)NC(=O)[C@H](CCN)NC(=O)[C@H](CCN)NC(=O)[C@H](CC(C)C)NC(=O)[C@@H](Cc3ccccc3)NC(=O)[C@H](CCN)NC2=O)[C@@H](C)O)NC(=O)[C@H](Cc2ccc(O)cc2)NC(=O)[C@H](CO)NC1=O [Ex. 41] (Ac-AWC[Tle]AS[dP]P[Nle]SYC[Dab]T[Dab][Dab][Dab][dF]L[Dab][Dab]T; disulfide 3-12; lactam 16-C),<1,0.5,1,0.25,0.5,0.5,2,0.5,
CC(=O)N[C@@H](Cc1c[nH]c2ccccc12)C(=O)N[C@@H](C)C(=O)N[C@H](C(=O)N[C@H]1CSSC[C@@H](C(=O)N[C@@H](Cc2ccc(O)cc2)C(=O)N[C@@H](C)C(=O)N[C@@H](CCCN)C(=O)N[C@H](CCN)C(=O)N[C@@H](CCN)C(=O)N[C@H]2CCNC(=O)[C@H]([C@@H](C)O)NC(=O)[C@H](CCN)NC(=O)[C@H](CCN)NC(=O)[C@H](CC(C)C)NC(=O)[C@@H](Cc3ccccc3)NC(=O)[C@H](CCN)NC2=O)NC(=O)[C@H](CC(C)C)NC(=O)[C@H](CCN)NC(=O)[C@H]2CCCN2C(=O)[C@H](C(C)C)NC1=O)C(C)C [Ex. 120] (Ac-WAVCV[dP][Dab]LCYA[Orn][dDab][Dab][Dab][Dab][dF]L[Dab][Dab]T; disulfide 4-9; lactam 15-C),<1,0.25,8,1,2,1,1,0.25,
CC(C)C[C@@H]1NC(=O)[C@@H](CC(C)C)NC(=O)[C@H](CCN)NC(=O)[C@@H](NC(=O)[C@H](CCN)NC(=O)[C@@H](NC(=O)[C@H](CCN)NC(=O)CC[C@@H]2NC(=O)CNC(=O)[C@H](Cc3ccc(O)cc3)NC(=O)[C@H](CO)NC(=O)[C@H](CC(C)C)NC(=O)[C@@H]3CCCN3C(=O)[C@H]3CCCN3C(=O)[C@H](CO)NC(=O)[C@H]([C@@H](C)O)NC(=O)[C@H](C(C)C)NC(=O)[C@H](CCN)NC(=O)[C@H](Cc3c[nH]c4ccccc34)NC(=O)[C@H](CCN)NC(=O)[C@@H](CCN)NC2=O)[C@@H](C)O)CCNC(=O)[C@H]([C@@H](C)O)NC(=O)[C@H](CCN)NC(=O)[C@H](CCN)NC1=O [Ex. 90] (I: cyclo(LSYGE[dDab][Dab]W[Dab]VTS[dP]P) / II: [Dab]T[Dab][Dab][Dab][dL]L[Dab][Dab]T; amide I:5-II:N; lactam II:4-II:C),,0.125,0.25,0.125,0.25,0.25,0.125,0.25,1
CCCC[C@@H]1NC(=O)[C@@H]2CCCN2C(=O)[C@H]2CCCN2C(=O)[C@H](CO)NC(=O)[C@H](C)NC(=O)[C@H](C(C)(C)C)NC(=O)[C@@H](NC(=O)[C@H](Cc2c[nH]c3ccccc23)NC(C)=O)CSSC[C@@H](C(=O)N[C@@H](CCN)C(=O)N[C@H](C(=O)N[C@@H](CCN)C(=O)N[C@H]2CCNC(=O)[C@H]([C@@H](C)O)NC(=O)[C@H](CCN)NC(=O)[C@H](CCN)NC(=O)[C@H](CC(C)C)NC(=O)[C@@H](Cc3ccccc3)NC(=O)[C@H](CCN)NC2=O)[C@@H](C)O)NC(=O)[C@H](Cc2ccc(O)cc2)NC(=O)[C@H](CO)NC1=O [Ex. 12] (Ac-WC[Tle]AS[dP]P[Nle]SYC[Dab]T[Dab][Dab][Dab][dF]L[Dab][Dab]T; disulfide 2-11; lactam 15-C),<1,0.0625,0.5,0.125,0.125,0.5,0.125,0.125,
CC(=O)N[C@@H](Cc1c[nH]c2ccccc12)C(=O)N[C@H]1CSSC[C@@H](C(=O)N[C@@H](CCCN)C(=O)N[C@H](C(=O)N[C@@H](CCN)C(=O)N[C@H]2CCNC(=O)[C@H]([C@@H](C)O)NC(=O)[C@H](CCN)NC(=O)[C@H](CCN)NC(=O)[C@H](CC(C)C)NC(=O)[C@@H](Cc3ccccc3)NC(=O)[C@H](CCN)NC2=O)[C@@H](C)O)NC(=O)[C@H](Cc2ccc(O)cc2)NC(=O)[C@H](CO)NC(=O)[C@H](CC(C)C)NC(=O)[C@@H]2CCCN2C(=O)[C@H]2CCCN2C(=O)[C@H](CO)NC(=O)[C@H](C)NC(=O)[C@H](Cc2c[nH]c3ccccc23)NC1=O [Ex. 111] (Ac-WCWAS[dP]PLSYC[Orn]T[Dab][Dab][Dab][dF]L[Dab][Dab]T; disulfide 2-11; lactam 15-C),2,0.25,1,1,0.25,1,0.25,0.25,
"CC(C)C[C@@H]1NC(=O)[C@@H](CC(C)C)NC(=O)[C@H](CCN)NC(=O)[C@@H](NC(=O)[C@H](CCN)NC(=O)[C@H](CCN)NC(=O)[C@@H]2CCC(=O)N[C@@H](CCN)C(=O)N[C@@H](Cc3c[nH]c4ccccc34)C(=O)N[C@H]3CSSC[C@H](NC(=O)[C@H](Cc4ccc(O)cc4)NC(=O)[C@H](CO)NC(=O)[C@H](CC(C)C)NC(=O)[C@@H]4CCCN4C(=O)[C@H]4CCCN4C(=O)[C@H](CO)NC(=O)[C@H](C)NC(=O)[C@H](C(C)C)NC3=O)C(=O)NCC(=O)N2)CCNC(=O)[C@H]([C@@H](C)O)NC(=O)[C@H](CCN)NC(=O)[C@H](CCN)NC1=O [Ex. 79] ([Dab]WCVAS[dP]PLSYCGE[Dab][Dab][Dab][Dab][dL]L[Dab][Dab]T; disulfide 3-12; lactam 17-C, N-14)",<1,0.5,8,1,2,0.5,0.5,2,
CCCC[C@@H]1NC(=O)[C@@H]2CCCN2C(=O)[C@H]2CCCN2C(=O)[C@H](CO)NC(=O)[C@H](C)NC(=O)[C@H](C(C)(C)C)NC(=O)[C@@H](NC(=O)[C@H](Cc2c[nH]c3ccccc23)NC(=O)[C@H](CCN)NC(C)=O)CSSC[C@@H](C(=O)N[C@@H](CCCN)C(=O)N[C@@H](CCN)C(=O)N[C@H]2CCNC(=O)[C@H]([C@@H](C)O)NC(=O)[C@H](CCN)NC(=O)[C@H](CCN)NC(=O)[C@H](CC(C)C)NC(=O)[C@@H](Cc3ccccc3)NC(=O)[C@H](CCN)NC2=O)NC(=O)[C@H](Cc2ccc(O)cc2)NC(=O)[C@H](CO)NC1=O [Ex. 35] (Ac-[Dab]WC[Tle]AS[dP]P[Nle]SYC[Orn][Dab][Dab][Dab][dF]L[Dab][Dab]T; disulfide 3-12; lactam 15-C),1,0.5,2,0.25,0.5,1,0.25,1,
